Format in all cases: cell-based
One assay deals with SHP-1. The experiment in a line: PTP assay: SHP-1 catalytic activity (pNPP hydrolysis) after treatment of NK-target cell conjugates. Particulars: inhibited NK cells (YTS-2DL1 + 221-Cw4), untreated 100±2.8%; 1 μM JAS, 25 μM Y-27. The method, then: YTS-2DL1 cells were pretreated with 25 μM Y-27 or left untreated. Cells were incubated at 37° C. with target cells for 5 min, 1 μM of JAS was added, and samples were incubated for 5 minutes before lysis. IP of SHP-1 was performed, and precipitates were incubated with pNpp. SHP-1 activity was determined by measuring absorbance at 405 nm. The graph represents rates of SHP-1 catalytic activity from three independent experiments.
In FIG. 8E, YTS-2DL1 cells were incubated at 37° C. with 221-Cw4 or Cw7 cells for 5 min, treated with 0.5 μM of CytD or left untreated, and SHP-1 activity was determined as detailed in the Materials and Methods. Graph summarizing percent of relative SHP-1 catalytic activity obtained by four independent experiments. Data are means±SEM.
SHP-1 catalytic activity was determined by measuring the hydrolysis of the exogenous substrate p-Nitrophenyl Phosphate (pNPP) by SHP-1, as previously described. NK cells (2-5×10^6) were incubated with target cells at ratio of 1:1, activated as described above, and lysed with passive ice-cold lysis buffer (1% Brij, 1% n-Octyl-b-D-glucoside, 50 mM Tris-HCl, pH 7.4, 150 mM NaCl, 5 mM ethylenediaminetetraacetic acid, and complete protease inhibitor tablets). Cell lysates were subjected to IP with anti-SHP-1 antibody. […] Reactions were terminated by adding 800 μl 1M NaOH, and SHP-1 activity was determined by measuring absorbance at 405 nm.

The test system of assay [1] is F-actin retrograde flow in YTS and pNK F-tractin GFP cells. Nature of the assay: Live cell imaging and kymograph analysis of F-actin retrograde flow (ARF) in F-tractin GFP NK cells. The following applies: 25 μM Y-27, activating vs. inhibitory NKIS. An excerpt: FIGS. […] In FIG. 5A, YTS F-tractin GFP cells were dropped over coverslips coated with anti-CD28 or anti-KIR1 antibodies, and imaged at 1 frame/sec through a single focal plane. […] Representative images are shown. Kymographs of F-actin dynamics were compiled along the contact site radius. […]
The y axis represents F-actin velocity (μm/sec), and the x axis—time from initial spreading (sec).
FIGS. 5E-5H. show analyses of NKIS area and ARF in the activating vs. inhibitory NKIS in the presence of Y-27632 (Y-27) inhibitor of myosin light chain (MLC) phosphorylation and/or JAS. […] NKIS area was determined using ImageJ. […]
Analyses of actin and SHP-1 dynamics were performed by preparing kymographs from live cell videos and tracing the movement of the fluorescently tagged proteins. […] Velocity over distance from the center was determined by calculating the velocity of the tracked protein based on the distance traversed to time between each two points on the trace, and noting the relative location from the center of the measured area. […] For each bin, average velocity and standard error were calculated. Average distance traversed over time was calculated by measuring the location of the trace, relative to its point of origin at each time point after the beginning of the trace. For each relative time point from the beginning of a trace, an average distance and standard error were calculated. […]

Assay [2] relates to myosin light chain (MLC) phosphorylation on Serine 19. The experiment in a line: Immunoblot of myosin light chain phosphorylation with anti-pMLC (Ser19). Particulars: 25 μM Y-27 for 15 min. The method, then: YTS-2DL1 cells were treated with 25 μM of Y-27 for 15 min at 37° C., or left untreated. Cells were incubated at 37° C. with […] target cells for 5 min, 1 μM of JAS was added, and cells were incubated for 5 min. Cell lysates were analyzed by IB for phosphorylation of myosin light chain using anti-pMLC (Ser19) antibodies.
For analysis of whole cell lysates, 1-10×10^5 cells were used, and for IP experiments, 10-15×10^6 cells were used. Protein A/G plus-Agarose beads (Santa Cruz Biotechnology) were used for IP. Protein samples were resolved with sodium dodecyl sulfate-polyacrylamide gel electrophoresis (SDS-PAGE), transferred to nitrocellulose membrane, and immunoblotted with the appropriate primary antibodies. Immunoreactive proteins were detected with either anti-mouse or anti-rabbit horseradish peroxidase-coupled secondary antibody followed by detection by enhanced chemiluminescence (PerkinElmer).
(In general: In western blotting, separated proteins are transferred to a membrane and probed.)

Where a name gives a salt, the structure may show the parent alone.

For `C[C@@H](N)C1CCC(C(=O)Nc2ccncc2)CC1` (stereo partly drawn) [Formula Y-27, 4-[(1R)-1-aminoethyl]-N N-4-pyridinyl-trans-cyclohexanecarboxamide, dihydrochloride], the SHP-1 catalytic activity in the assay on SHP-1 was determined as 66.4±1.1%. Besides, the F-actin flow entry in assay [1] is reported as “complete arrest of F-actin flow”. In addition, the “MLC phosphorylation (pMLC S19)” value in assay [2] is “significant reduction in phosphorylation”.

The values are drawn from patent US20190343801A1, “COMPOSITIONS AND METHODS FOR CONTROLLING NATURAL KILLER CELL ACTIVATION AND FUNCTION” (BAR ILAN UNIVERSITY, priority 2017, published 2019).
